The source of these data is paper PMC5412445, “ZeGlobalTox: An Innovative Approach to Address Organ Drug Toxicity Using Zebrafish” (International Journal of Molecular Sciences, 2017).

The test system of series [1] is zebrafish larvae. On the set-up: method as in PMID 16408054, PMID 22744888. The following applies: ref [50],[57]; cited from earlier work.
The subject of series [2] is zebrafish larvae. The series is described as follows: ZeGlobalTox neurotoxicity evaluation (locomotion, light/dark trial). The following applies: 120 hpf, drug from 96 hpf at NOEC (MPTP 100 µM, paracetamol 2600 µM). The class given is in vivo, zebrafish (Danio rerio). As for the experimental part: By 5 dpf, zebrafish larvae perform spontaneous swimming and their visual system is fully developed. Therefore, behavioural experiments were performed from this time point (Figure 4A). Deviations in total distance moved, in response to photo-visual stimulation, were analysed as a direct measurement of neurotoxicity. Thus, drugs increasing or decreasing total distance moved when compared to the DMSO-only group were considered neurotoxic. As the positive neurotoxic control we used MPTP, which has been identified as a neurotoxic drug in humans and zebrafish.
Immediately after heart video acquisition, larvae are washed with E3 medium to remove tricaine methanesulfonate from the solution. Fresh drug solution is added and the larvae are transferred individually in a volume of 150 µL to 96 well plates.
Neurotoxicity is analysed at 120 hpf by locomotion assessment using the EthoVision XT 11.5 software and the DanioVision device from Noldus Information Technologies, Wageningen, The Netherlands. This closed system consists of a camera placed above a chamber with circulating water and a temperature sensor set at 28 °C. The 96-well plates are placed in the chamber, which can then be illuminated with white light using the software. Larvae are then left for 20 min under these conditions and with the lights on to help their acclimation. Finally, larvae locomotion is measured during 50′ under the following light/dark conditions: 10′ darkness-10′ Light-10′ darkness-10′ Light-10′ darkness. Total distance moved (in mm) is acquired under this light/dark trial. Due to circadian rhythms, all locomotion assays were performed from 13:00 pm onwards to ensure steady activity of the zebrafish.
Neurotoxicity is assessed by comparing locomotion differences among the tested compounds (solved in DMSO) and the negative control group (DMSO 1%-only).

Another series relates to humans. The following applies: known toxicity in humans, ref TOXNET (HSDB), Side effects (EMBL), drugs.com, cited from earlier work; for Neurotoxicity (toxicity in humans): [22],[30],[31],[34],[35]; for Cardiotoxicity (toxicity in humans) / Hepatotoxicity (toxicity in humans): ema.europa; for Cardiotoxicity (toxicity in humans): [19],[20],[21]; for Hepatotoxicity (toxicity in humans): [24],[26],[27],[32],[33].

A further series has as its system zebrafish larvae liver. The series is described as follows: ZeGlobalTox hepatotoxicity: Oil Red O staining (steatosis and yolk lipid accumulation). The following applies: 132 hpf; for Percentage of larvae presenting steatosis: 36 h drug incubation at NOEC (EtOH 2%, MPTP 100 µM), DMSO 24.44%.
The test system of another series is zebrafish larvae heart. Kind of series: ZeGlobalTox cardiotoxicity evaluation (heart video, ZeCardio software). The class given is in vivo, zebrafish (Danio rerio). The following applies: 100 hpf, 4 h after drug incubation at NOEC (haloperidol 10 µM). As for the experimental part: Four cardiac parameters were evaluated to assess whether a compound was cardiotoxic: heart rate (beats per minute, BPM), QTc prolongation, ejection fraction (EJF), and cardiac arrest. […] 1% DMSO was used as the negative control.
Cardiotoxicity evaluation was performed from 96 hpf, when the zebrafish heartbeat is already stabilised, so the analysis might not be altered by unstable beating. Zebrafish hearts were video-recorded at 4 h after drug incubation (100 hpf) and analysed using the ZeCardio® β software (Figure 3A).
After 4 h of drug incubation (100 hpf), zebrafish larvae were anesthetized by immersion in […] tricaine methanesulfonate (A4050, Sigma-Aldrich, Saint Louis, MO, USA)/E3 solution. […] The 1% DMSO treated embryos were used as negative cardiotoxic controls. Embryos were positioned in an agarose based mold to allow their appropriate orientation under the fluorescence stereo microscope (Olympus MVX10). Individual fluorescent hearts were recorded during 60 s each (Figure 6A). Videos were acquired with a high-speed recording camera (Hamamatsu C11440 ORCA-flash 2.8) and analysed with the ZeCardio® β software to extract different cardiac parameters—heart rate, cardiac arrest, QTc prolongation, and Ejection Fraction (EJF) (Figure 6B).
ZeCardio® β software, developed by ZeClinics and currently in β status, provides a graphical user interface (GUI) that facilitates the semi-automatic analysis of living heart videos. Interactive analysis of the different parameters functions as follows: The user draws a line along the heart axis, from ventricle to atrium, to initiate the calculation. […] All lines can be subjected to modification of their angles and lengths.
Heart beat frequency for each chamber is detected and frequencies are presented in the GUI as a mean. A plot distribution is used for assessing beat stability over time (Figure 6F). In the same fashion, chamber specific cardiac arrest is measured as the longest beating pause (Figure 6H). No beating chambers and/or incorrect bpm can be manually flagged when detected.
For calculation of the QTc interval (linearly corrected QT interval), the Framingham formula (QTc = QT + 0.154 (1 − RR)) was adjusted for zebrafish as QTc = QT + 0.154 (2.66 − RR). RR = 6.6 ms/measured bpm is applied (Figure 6G). Finally, the Ejection Fraction, calculated as the maximal dilatation (the diastolic diameter, DD) versus the maximal contraction (systolic diameter, SD) is measured in % as EF% = (DD − SD)/DD*100 (Figure 6G). Computed values for the described parameters were exported in .csv format (Figure 6H).

In series [3] the test system is wild type zebrafish embryos. Kind of series: in vivo. The class given is in vivo. The following applies: embryos incubated 3 to 96 hpf; 5 logarithmic concentrations 0.1 µM to 1 mM; 1% DMSO. From the text: (§1) Several issues were considered when planning the experimental protocol. The main concern was that drug-induced mortality and/or developmental toxicity (teratogenicity) could mask possible organ-toxicities appearing later in development. […] This preliminary assay allowed for the identification of non-mortal/non-teratogenic concentrations—no observed effect concentration (NOEC)—to use in the following assays. The hypothesis is that NOEC could affect organ physiology (organ toxicity), while uncoupled from putative developmental toxicity side-effects affecting organ development or function. Another consideration was to start drug incubations at 96 hours post fertilization (hpf), when the analysed organs are close to or already developed (Figure 1B). The overall aim is to understand the drug impact on organ physiology and function rather than early embryogenesis. The third consideration was to organize the sequential organ evaluation during the experimental and drug incubation time.
(§2) 1% DMSO, which is the constant solvent concentration in all conditions, was used as the negative control.
(§3) Thus, 20 wild type (wt) zebrafish embryos per condition were incubated with tested compounds from 3 to 96 hpf. The test was performed in 5 logarithmic concentrations per drug (from 0.1 µM to 1 mM). Each larva was analysed for mortality, body deformity, edema, tail detachment, pigmentation, heart activity, heart edema, and motor activity. […] DMSO 1% was used as the negative control in all experiments.

A further series in a line: in vivo. It counts as in vivo. The following applies: zebrafish, in vivo; mortality; embryos incubated 3 to 96 hpf; 5 logarithmic concentrations 0.1 µM to 1 mM; 1% DMSO.
Description: as §1, §2, §3

Entries after “also recorded” stand apart in the source; their conditions may differ. Counter-ions that a name gives are not always drawn. Bounds are passed on as bounds.

By LC50 is commonly meant the concentration lethal to half of the exposed cells or organisms. High values mean a less lethal substance, low ones a more lethal substance.

Description for zebrafish larvae liver: In order to assess drugs producing steatosis and yolk lipid accumulation, and subsequent to the RFP filtered images being acquired, zebrafish larvae were stained with Oil Red O. Larvae and were sorted into steatosis positive or negative, yolk lipid accumulation, or both (see materials and methods).
For the ZeGlobalTox assay, fertilized Tg(cmlc2:GFP; fabp10:RFP; ela31:EGFP) zebrafish embryos were collected in E3 medium (5 mM NaCl, 0.17 mM KCl, 0.33 mM CaCl2, 0.33 mM, MgSO4) in Petri dishes. At 3, 24, and 48 hpf, dishes were observed and all not fertilized, abnormal, or coagulated eggs were discarded. At 96 hpf, 20 larvae per condition were incubated with the NOECs from the different drugs and allowed to develop until 132 hpf at 28.5 °C.
After 36 h of drug incubation (132 hpf), embryos are fixed in 4% paraformaldehyde (158127-500G, Sigma-Aldrich, Saint Louis, MO, USA) for 2–4 h at room temperature (RT) and then are 3× washed with PBS.
In order to detect the presence of steatosis and yolk lipid retention, zebrafish larvae were stained with Oil Red O (O0625-25G, Sigma-Aldrich, Saint Louis, MO, USA) as described in [77]. Briefly, the skin pigment from fixed larvae is removed by incubating with bleaching solution (for 10 mL: 6 mL H2O, 0.25 mL 20× SSC, 0.5 mL formamide, 3.3 mL H2O2) during 20 min at RT. Then, the larvae are 5× washed with PBS. Bleached embryos are first submerged in 85% Propylene glycol (PG) (134368-1L, Sigma-Aldrich, Saint Louis, MO, USA) for 10 min and then in 100% PG for another 10 min before staining them with Oil Red O 0.5% in 100% PG (overnight, at RT and with gentle rocking). Oil Red O stained embryos are washed in 100% PG for 30 min, 50 min in 85% PG, and 40 min in 85% PG with an equal volume of PBS. Finally, embryos are washed 1× with PBS before adding 80% glycerol (G7757-500ML, Sigma-Aldrich, Saint Louis, MO, USA). Bright field images are taken to detect both steatosis and yolk lipid accumulation. […] Yolk lipid retention is considered positive when a red strong signal is observed in the yolk area (Figure 5F).
DMSO 1% treated larvae were used as the negative control group.

Regarding `CC(=O)Nc1ccc(O)cc1` [Acetaminophen], the “Impact on the heart rate in zebrafish larvae” value in the series on zebrafish larvae [1] is recorded as “no impact”. The “Motility (total distance moved) compared to DMSO” value (shortened to “Motility … compared to DMSO”) in the series with zebrafish larvae [2] is given as “Decreased motility”. In the series with humans, the “Neurotoxicity (toxicity in humans)” value is recorded as “Toxic ^2,3”, the “Cardiotoxicity (toxicity in humans)” value is recorded as “Toxic ^1,2,3” and the “Hepatotoxicity (toxicity in humans)” value is “Toxic ^1,2,3 [24]”. In addition, the “Percentage of larvae presenting yolk lipid retention” value with zebrafish larvae liver (36 h drug incubation at NOEC (paracetamol 2600 µM), DMSO 22.22%) is given as 60%.
Take `CN1CCN(CCCN2c3ccccc3Sc3ccc(C(F)(F)F)cc32)CC1` [Trifluoperazine HCL, trifluoperazine hydrochloride]: in the series on zebrafish larvae heart, the “Heart rate (beats per minute) compared to DMSO-only” value was “decreased the heart rate” and the “Longest cardiac arrest compared to DMSO-only” value is “Longer cardiac arrest”. Moreover, in series [3], the “96 hpf LOEC” value is recorded as 100 µM and the “96 hpf NOEC” value is listed as 10 µM. Besides, in “in vivo”, the LC50 turned out to be 31.6 µM. In addition, the “Motility … compared to DMSO” value in the series with zebrafish larvae [2] was “Decreased motility”. In addition, in the series on humans, the “Neurotoxicity (toxicity in humans)” value was “Toxic ^1,2,3”, the “Cardiotoxicity (toxicity in humans)” value is “Toxic ^1,2,3” and the “Hepatotoxicity (toxicity in humans)” value was “Toxic ^1,2,3”. The “Percentage of larvae presenting steatosis” value with zebrafish larvae liver worked out at 85%.
`CN1CC=C(c2ccccc2)CC1` [MPTP, 1-methyl-4-phenyl-1,2,3,6-tetrahydropyridine]: the “Motility … compared to DMSO” value with zebrafish larvae [2] is “Decreased motility”. The “Neurotoxicity (toxicity in humans)” value in the series with humans was “Toxic [22, 30, 31]”. Besides, the “Percentage of larvae presenting steatosis” value in the series on zebrafish larvae liver was determined as 50%.
For the compound `CC[C@]1(O)C[C@H]2CN(CCc3c([nH]c4ccccc34)[C@@](C(=O)OC)(c3cc4c(cc3OC)N(C=O)[C@H]3[C@@](O)(C(=O)OC)[C@H](OC(C)=O)[C@]5(CC)C=CCN6CC[C@]43[C@@H]65)C2)C1` [Vincristine, vincristine], in the series on zebrafish larvae heart, the “Heart rate (beats per minute) compared to DMSO-only” value was “decreased the heart rate” and the “Longest cardiac arrest compared to DMSO-only” value is given as “Longer cardiac arrest”. In addition, the “96 hpf LOEC” value in series [3] is recorded as 100 µM. The compound further displayed a 50% lethal concentration (LC50) in the series “in vivo” of 31.6 µM. Further, in the series on zebrafish larvae [2], the “Motility … compared to DMSO” value is reported as “increased motility”. For the same compound, in the series with humans, the “Neurotoxicity (toxicity in humans)” value was “Toxic ^1,2,3”, the “Cardiotoxicity (toxicity in humans)” value is reported as “Toxic ^1,2,3” and the “Hepatotoxicity (toxicity in humans)” value was “Safe”.
With `CC(=O)O[C@@]12CO[C@@H]1C[C@H](O)[C@@]1(C)C(=O)[C@H](O)C3=C(C)[C@@H](OC(=O)[C@H](O)[C@@H](NC(=O)OC(C)(C)C)c4ccccc4)C[C@@](O)([C@@H](OC(=O)c4ccccc4)[C@H]21)C3(C)C` [Docetaxel, docetaxel], in the series on zebrafish larvae heart, the “Heart rate (beats per minute) compared to DMSO-only” value is recorded as “decreased the heart rate” and the “Longest cardiac arrest compared to DMSO-only” value was “Longer cardiac arrest”. The “96 hpf LOEC” value in series [3] is on record as 100.00 µM. Moreover, the “Motility … compared to DMSO” value with zebrafish larvae [2] is reported as “increased motility”. In the series with humans, the “Neurotoxicity (toxicity in humans)” value is reported as “Toxic ^1,2,3”, the “Cardiotoxicity (toxicity in humans)” value is given as “Toxic ^2,3” and the “Hepatotoxicity (toxicity in humans)” value is on record as “Toxic ^1,2,3”.
Take `CC(C)NCC(O)COc1cccc2[nH]ccc12` (stereo not shown) [Pindolol, pindolol]: in the series on zebrafish larvae heart, the “Heart rate (beats per minute) compared to DMSO-only” value was “decreased the heart rate”, the “Longest cardiac arrest compared to DMSO-only” value was “Longer cardiac arrest” and the “QTc interval compared to DMSO-only” value is reported as “QTc interval prolongation; also recorded: increased QTc”. For the same compound, in series [3], the “96 hpf LOEC” value is recorded as 1000 µM. Besides, the median lethal concentration (LC50) in the series “in vivo” was > 1000 µM. In the series on zebrafish larvae [2], the “Motility … compared to DMSO” value is “increased motility”. In addition, in the series with humans, the “Neurotoxicity (toxicity in humans)” value is given as “Toxic ^2,3”, the “Cardiotoxicity (toxicity in humans)” value was “Toxic ^1,2,3” and the “Hepatotoxicity (toxicity in humans)” value is “Safe”.
On to `CNCC(O)c1ccc(O)c(O)c1.Cl` (racemic) [(±)-Epinephrine HCL, (±)-epinephrine hydrochloride], for which the “96 hpf NOEC” value in series [3] was 1000.00 µM. Also, in the series on zebrafish larvae [2], the “Motility … compared to DMSO” value is given as “increased motility”. For the same compound, in the series on humans, the “Neurotoxicity (toxicity in humans)” value is reported as “Toxic ^1,2,3”, the “Cardiotoxicity (toxicity in humans)” value is listed as “Toxic ^1,2,3” and the “Hepatotoxicity (toxicity in humans)” value is reported as “Safe”. For the same compound, the “Percentage of larvae presenting steatosis” value in the series on zebrafish larvae liver is 80%.
